From patent US8987502B2, “Oleanolic acid amidate derivatives, preparation methods and uses thereof” (Hangzhou Bensheng Pharmaceutical Co., Ltd., priority 2011, dated 2015)
Values after ≈ are worked out from the molar mass of the structure shown.

Legend:
[1] = tested on: Kasumi-1; assay: MTT leukemia cell proliferation inhibition, Kasumi-1; assay type: cell-based; settings: Homo sapiens; for inhibition at 16 µg/mL: Kasumi-1, 16 μg/mL compound, 72 h, read-out: IR (inhibition rate); for IC50: Kasumi-1, 72 h, MTT
Excerpt: (§1) Leukemia cell lines: leukemia cell lines: K562/adr (drug-resistant, chronic myeloid leukemia, CML), NB4 (acute promyelocytic leukemia, AML), Kasumi-1 (acute myeloid leukemia M2 type, AML-M2), Jurkat (acute lymphoblastic leukemia, ALL), all of which are donated by Cancer Research Institute of Zhejiang University, China; and H9 (acute lymphoblastic leukemia, ALL), which is purchased from China Center for Type Culture Collection (CCTCC).
(§2) Reagents: The standard sample of oleanolic acid (OA) is purchased from Hua Kang Pharmaceutical Raw Material Factory, Shifang City, Sichuan, China; and the amidated oleanolic acid derivatives are prepared according to the present invention.
(§3) Obtaining 6000 well-growing leukemia cells and inoculating them into wells of a 96-well cell culture plate. The culture medium is the 1640 cell culture medium containing 10% fetal bovine serum. After adding the amidated oleanolic acid derivatives of different concentrations and mixing uniformly, placing the plate in a carbon dioxide cell incubator (5% CO2) at 37° C. and incubated for 72 hours. Then the relative number of viable cells is determined by the MTT method. In this experiment, the cell proliferation inhibition rate in control group (not treated with any compound) is set as 0%.

[2] = tested on: SK-OV-3; assay: MTT solid tumor cell proliferation inhibition, SK-OV-3; assay type: cell-based, human; settings: Homo sapiens; for inhibition at 16 µg/mL: SK-OV-3, 16 μg/mL compound, 72 h, read-out: IR (inhibition rate); for IC50: SK-OV-3, 72 h, MTT
Method: (§4) Human solid tumor cell lines: Hep-2 (laryngeal carcinoma), A549 (human lung cancer), CaES-17 (esophageal cancer cell), PC-3 (prostate cancer), CNE (nasopharyngeal carcinoma cell), and SK-OV-3 (ovarian cancer cell), all of which are purchased from China Center For Type Culture Collection; RKO (human colon adenocarcinoma cell), MGC 803 (human gastric cancer cell), MG63 (osteosarcoma) and U87 MG (malignant glioma cell), all of which are purchased from Fuxiang Bio-tech Co. Ltd., Shanghai, China; PANC-1 (pancreatic cancer), Hep G2 (human liver cancer cell), Becap37 (human breast cancer cell), and Hela (human cervical cancer cell), all of which are donated by Cancer Research Institute of Zhejiang University, China.
(§5) Obtaining 4000 well-growing human solid tumor cells and inoculating them into wells of a 96-well cell culture plate. The culture medium is DMEM High Glucose cell culture medium containing 10% fetal bovine serum. The plate is placed in a carbon dioxide cell incubator (5% CO2) at 37° C. for 24 hours for incubation. After being added with the amidated oleanolic acid derivatives of different concentrations and mixed uniformly, the plate is placed in a carbon dioxide cell incubator (5% CO2) at 37° C. for 72 hours for incubation. Then the relative number of the living cells is determined by the MTT method. In this experiment, the cell proliferation inhibition rate in control group (not treated with any compound) is set as 0%.

[3] = tested on: RKO; assay: MTT solid tumor cell proliferation inhibition, RKO; assay type: cell-based; settings: Homo sapiens, 72 h; for inhibition at 16 µg/mL: 16 μg/mL compound, read-out: IR (inhibition rate); for IC50: MTT
Method: as §4, §5

[4] = tested on: RPMI8226; assay: MTT multiple myeloma cell proliferation inhibition, RPMI8226; assay type: cell-based; settings: Homo sapiens, RPMI-8226; for inhibition at 16 µg/mL: RPMI8226, 16 μg/mL compound, 72 h, read-out: IR (inhibition rate); for IC50: RPMI8226, 72 h, MTT
Method: Multiple myeloma cell lines: RPMI8226 (multiple myeloma), purchased from Fuxiang Bio-tech Co. Ltd., Shanghai, China.
as §3

[5] = tested on: NB4; assay: MTT leukemia cell proliferation inhibition, NB4; assay type: cell-based; settings: Homo sapiens, NB-4; for inhibition at 16 µg/mL: NB4, 16 μg/mL compound, 72 h, read-out: IR (inhibition rate); for IC50: NB4, 72 h, MTT
Excerpt: as §1, §2, §3

[6] = tested on: PANC-1; assay: MTT solid tumor cell proliferation inhibition, PANC-1; assay type: cell-based, human; settings: Homo sapiens; for inhibition at 16 µg/mL: PANC-1, 16 μg/mL compound, 72 h, read-out: IR (inhibition rate); for IC50: PANC-1, 72 h, MTT
Method: as §4, §5

[7] = tested on: K562/adr; assay: MTT leukemia cell proliferation inhibition, K562/adr; assay type: cell-based; settings: Homo sapiens, 72 h; for inhibition at 16 µg/mL: 16 μg/mL compound, read-out: IR (inhibition rate); for IC50: MTT
Excerpt: as §1, §2, §3

[8] = tested on: PC-3; assay: MTT solid tumor cell proliferation inhibition, PC-3; assay type: cell-based, human; settings: Homo sapiens; for inhibition at 16 µg/mL: PC-3, 16 μg/mL compound, 72 h, read-out: IR (inhibition rate); for IC50: PC-3, 72 h, MTT
Method: as §4, §5

[9] = tested on: A549; assay: MTT solid tumor cell proliferation inhibition, A549; assay type: cell-based, human; settings: for inhibition at 16 µg/mL / IC50: Homo sapiens; for inhibition at 16 µg/mL: A549, 16 μg/mL compound, 72 h, read-out: IR (inhibition rate); for IC50: A549, 72 h, MTT
Method: as §4, §5

[10] = tested on: Jurkat; assay: MTT leukemia cell proliferation inhibition, Jurkat; assay type: cell-based; settings: Homo sapiens, 72 h; for inhibition at 16 µg/mL: 16 μg/mL compound, read-out: IR (inhibition rate); for IC50: MTT
Excerpt: as §1, §2, §3

[11] = tested on: U87 MG; assay: MTT solid tumor cell proliferation inhibition, U87 MG; assay type: cell-based, human; settings: for inhibition at 16 µg/mL / IC50: Homo sapiens, U-87 MG, U87 MG, 72 h; for inhibition at 16 µg/mL: 16 μg/mL compound, read-out: IR (inhibition rate); for IC50: MTT
Method: as §4, §5

[12] = tested on: MGC803; assay: MTT solid tumor cell proliferation inhibition, MGC803; assay type: cell-based, human; settings: Homo sapiens, MGC-803; for inhibition at 16 µg/mL: MGC803, 16 μg/mL compound, 72 h, read-out: IR (inhibition rate); for IC50: MGC803, 72 h, MTT
Method: as §4, §5

[13] = tested on: H9; assay: MTT leukemia cell proliferation inhibition, H9; assay type: cell-based, human; settings: Homo sapiens; for inhibition at 16 µg/mL: H9, 16 μg/mL compound, 72 h, read-out: IR (inhibition rate); for IC50: H9, 72 h, MTT
Excerpt: as §1, §2, §3

[14] = tested on: MG 63; assay: MTT solid tumor cell proliferation inhibition, MG 63; assay type: cell-based, human; settings: for IC50: Homo sapiens, MG 63, 72 h, MTT; for IR (inhibition rate): MG 63, 16 μg/mL compound, 72 h
Method: as §4, §5

[15] = tested on: Hep G2; assay: MTT solid tumor cell proliferation inhibition, Hep G2; assay type: cell-based; settings: Homo sapiens, HepG2; for inhibition at 16 µg/mL: Hep G2, 16 μg/mL compound, 72 h, read-out: IR (inhibition rate); for IC50: Hep G2, 72 h, MTT
Method: as §4, §5

[16] = tested on: Hela; assay: MTT solid tumor cell proliferation inhibition, Hela; assay type: cell-based, human; settings: Homo sapiens, Hela, 72 h; for inhibition at 16 µg/mL: 16 μg/mL compound, read-out: IR (inhibition rate); for IC50: MTT
Method: as §4, §5

[17] = tested on: Hep-2; assay: MTT solid tumor cell proliferation inhibition, Hep-2; assay type: cell-based, human; settings: for inhibition at 16 µg/mL / IC50: Homo sapiens; for inhibition at 16 µg/mL: Hep-2, 16 μg/mL compound, 72 h, read-out: IR (inhibition rate); for IC50: Hep-2, 72 h, MTT
Method: as §4, §5

[18] = tested on: CaES-17; assay: MTT solid tumor cell proliferation inhibition, CaES-17; assay type: cell-based, human; settings: for inhibition at 16 µg/mL / IC50: Homo sapiens, CaEs17; for inhibition at 16 µg/mL: CaES-17, 16 μg/mL compound, 72 h, read-out: IR (inhibition rate); for IC50: CaES-17, 72 h, MTT
Method: as §4, §5

[19] = tested on: Becap37; assay: MTT solid tumor cell proliferation inhibition, Becap37; assay type: cell-based; settings: Homo sapiens; for inhibition at 16 µg/mL: Becap37, 16 μg/mL compound, 72 h, read-out: IR (inhibition rate); for IC50: Becap37, 72 h, MTT
Method: as §4, §5

[20] = tested on: CNE; assay: MTT solid tumor cell proliferation inhibition, CNE; assay type: cell-based, human; settings: Homo sapiens, CNE, 72 h; for inhibition at 16 µg/mL: 16 μg/mL compound, read-out: IR (inhibition rate); for IC50: MTT
Method: as §4, §5

## CC1(C)CC[C@]2(NC(=O)c3cccs3)CC[C@]3(C)C(=CC[C@@H]4[C@@]5(C)CC[C@H](O)C(C)(C)[C@@H]5CC[C@]43C)[C@@H]2C1 [BS-OA-098]
[1]
  inhibition at 16 µg/mL: 35.7%
  IC50: > 16 µg/mL
[2]
  inhibition at 16 µg/mL: 53.5%
  IC50: 14.6 µg/mL (≈ 27.2 µM)
[3]
  inhibition at 16 µg/mL: 27%
  IC50: > 16 µg/mL
[4]
  inhibition at 16 µg/mL: 97.6%
  IC50: 6.44 µg/mL (≈ 12 µM)
[5]
  inhibition at 16 µg/mL: 96.3%
  IC50: 8.22 µg/mL (≈ 15.3 µM)
[6]
  inhibition at 16 µg/mL: 34.7%
  IC50: > 16 µg/mL
[7]
  inhibition at 16 µg/mL: 81.9%
  IC50: 7.83 µg/mL (≈ 14.6 µM)
[8]
  inhibition at 16 µg/mL: 45.1%
  IC50: 17.4 µg/mL (≈ 32.4 µM)
[9]
  inhibition at 16 µg/mL: 24.3%
  IC50: > 16 µg/mL
[10]
  inhibition at 16 µg/mL: 20.1%
  IC50: > 16 µg/mL
[11]
  inhibition at 16 µg/mL: 29.8%
  IC50: > 16 µg/mL
[12]
  inhibition at 16 µg/mL: 46.3%
  IC50: 16 µg/mL (≈ 29.7 µM)
[13]
  inhibition at 16 µg/mL: 62.4%
  IC50: 12.5 µg/mL (≈ 23.2 µM)
[14]
  IC50: > 16 µg/mL
  IR (inhibition rate): 20.9%
[15]
  inhibition at 16 µg/mL: 28.4%
  IC50: > 16 µg/mL
[16]
  inhibition at 16 µg/mL: 63.1%
  IC50: 14.2 µg/mL (≈ 26.3 µM)
[17]
  inhibition at 16 µg/mL: 19.6%
  IC50: > 16 µg/mL
[18]
  inhibition at 16 µg/mL: 39.9%
  IC50: > 16 µg/mL
[19]
  inhibition at 16 µg/mL: 28.6%
  IC50: > 16 µg/mL
[20]
  inhibition at 16 µg/mL: 35.8%
  IC50: > 16 µg/mL

## CC1(C)CC[C@]2(NC(=O)c3ccco3)CC[C@]3(C)C(=CC[C@@H]4[C@@]5(C)CC[C@H](O)C(C)(C)[C@@H]5CC[C@]43C)[C@@H]2C1 [BS-OA-099]
[1]
  inhibition at 16 µg/mL: 69.1%
  IC50: 13.1 µg/mL (≈ 25.1 µM)
[2]
  inhibition at 16 µg/mL: 43.2%
  IC50: > 16 µg/mL
[3]
  inhibition at 16 µg/mL: 63.1%
  IC50: 14.3 µg/mL (≈ 27.4 µM)
[4]
  inhibition at 16 µg/mL: 98.9%
  IC50: 5.79 µg/mL (≈ 11.1 µM)
[5]
  inhibition at 16 µg/mL: 100%
  IC50: 9.17 µg/mL (≈ 17.6 µM)
[6]
  inhibition at 16 µg/mL: 34.3%
  IC50: > 16 µg/mL
[7]
  inhibition at 16 µg/mL: 97.1%
  IC50: 5.26 µg/mL (≈ 10.1 µM)
[8]
  inhibition at 16 µg/mL: 47.2%
  IC50: 19.5 µg/mL (≈ 37.4 µM)
[9]; A549 cells
  improvement of cell inhibition rate as compared with oleanolic acid: more than 4 fold
[9]
  inhibition at 16 µg/mL: 75%
  IC50: 15 µg/mL (≈ 28.7 µM)
[10]
  inhibition at 16 µg/mL: 63.6%
  IC50: 14.5 µg/mL (≈ 27.8 µM)
[11]
  inhibition at 16 µg/mL: 47.9%
  IC50: 16 µg/mL (≈ 30.7 µM)
[11]; U87 MG cells
  improvement of cell inhibition rate as compared with oleanolic acid: more than 2 fold
[12]
  inhibition at 16 µg/mL: 50%
  IC50: 16 µg/mL (≈ 30.7 µM)
[13]
  inhibition at 16 µg/mL: 59.8%
  IC50: 14 µg/mL (≈ 26.8 µM)
[14]
  IC50: 15.1 µg/mL (≈ 29 µM)
  IR (inhibition rate): 58.9%
[15]
  inhibition at 16 µg/mL: 25.3%
  IC50: > 16 µg/mL
[16]
  inhibition at 16 µg/mL: 72.9%
  IC50: 12.6 µg/mL (≈ 24.1 µM)
[17]; Hep-2 cells
  improvement of cell inhibition rate as compared with oleanolic acid: more than 3 fold
[17]
  inhibition at 16 µg/mL: 37.3%
  IC50: > 16 µg/mL
[18]; CaES-17 cells
  improvement of cell inhibition rate as compared with oleanolic acid: more than 2 fold
[18]
  inhibition at 16 µg/mL: 66.6%
  IC50: 12.4 µg/mL (≈ 23.8 µM)
[19]
  inhibition at 16 µg/mL: 35.1%
  IC50: > 16 µg/mL
[20]
  inhibition at 16 µg/mL: 42.4%
  IC50: > 16 µg/mL
